The source of these data is ChEMBL document CHEMBL1909511, “Inhalation by design: novel tertiary amine muscarinic M₃ receptor antagonists with slow off-rate binding kinetics for inhaled once-daily treatment of chronic obstructive pulmonary disease” (J Med Chem, 2011).

A word on the IC50: it is the concentration that inhibits the measured activity by half. In general, Ki refers to the dissociation constant of the complex between target and ligand, obtained from inhibition or displacement. As a reminder, the Papp B→A is the apparent permeability from the basolateral to the apical side of a cell layer. Usually clearance stands for the rate of elimination divided by the concentration. One may read the pKb as the negative decadic logarithm of the Kb, by convention in mol/L. High values mean a low Kb, low ones a high Kb.

Structures are written as SMILES.

Data set [1] addresses Muscarinic acetylcholine receptor M3 (Cavia porcellus, UniProt Q8VH26). The data set is described as follows: Antagonist activity at M3 receptor in Dunkin-Hartley guinea pig tracheal strips assessed as inhibition of electrically field-stimulated contractile response after 8 hrs. In kind it is functional.
For data set [2], the target named is Muscarinic acetylcholine receptor M3 (Cavia porcellus) (UniProt Q8VH26). Kind of data set: Antagonist activity at M3 receptor in Dunkin-Hartley guinea pig tracheal strips assessed as time taken for electrically field-stimulated contractile response to recover by 25 percent of inhibition at Emax after 2 hrs. In kind it is functional.
Chain of Muscarinic acetylcholine receptor M3 (Cavia porcellus) (Q8VH26 1-587): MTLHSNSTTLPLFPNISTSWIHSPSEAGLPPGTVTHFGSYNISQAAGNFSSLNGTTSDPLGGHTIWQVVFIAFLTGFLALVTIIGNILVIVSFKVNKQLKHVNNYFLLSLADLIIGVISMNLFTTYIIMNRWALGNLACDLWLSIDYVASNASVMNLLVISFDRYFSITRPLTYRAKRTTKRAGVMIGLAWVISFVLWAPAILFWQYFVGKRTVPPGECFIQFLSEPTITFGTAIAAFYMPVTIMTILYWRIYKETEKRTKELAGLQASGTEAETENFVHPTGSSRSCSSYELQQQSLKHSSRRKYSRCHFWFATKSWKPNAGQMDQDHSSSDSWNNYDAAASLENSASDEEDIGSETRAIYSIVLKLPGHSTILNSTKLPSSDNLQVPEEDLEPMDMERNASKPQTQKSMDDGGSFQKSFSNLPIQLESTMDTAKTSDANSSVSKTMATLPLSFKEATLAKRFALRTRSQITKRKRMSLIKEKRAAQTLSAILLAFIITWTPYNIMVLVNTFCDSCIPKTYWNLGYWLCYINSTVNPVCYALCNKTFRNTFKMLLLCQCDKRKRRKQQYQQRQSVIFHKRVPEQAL
The subject of the next data set is Cavia porcellus. The data set is described as follows: Bronchodilator activity in Dunkin-Hartley guinea pig assessed as inhibition of […] lung resistance after cumulative intratracheal administration in micelle solution at hourly intervals challenged each time 1 hr later with methacholine. It counts as functional, organism-based.
In data set [3] the target is T1, Muscarinic acetylcholine receptor M2 (Homo sapiens) (UniProt P08172).
T1 sequence (whole entry): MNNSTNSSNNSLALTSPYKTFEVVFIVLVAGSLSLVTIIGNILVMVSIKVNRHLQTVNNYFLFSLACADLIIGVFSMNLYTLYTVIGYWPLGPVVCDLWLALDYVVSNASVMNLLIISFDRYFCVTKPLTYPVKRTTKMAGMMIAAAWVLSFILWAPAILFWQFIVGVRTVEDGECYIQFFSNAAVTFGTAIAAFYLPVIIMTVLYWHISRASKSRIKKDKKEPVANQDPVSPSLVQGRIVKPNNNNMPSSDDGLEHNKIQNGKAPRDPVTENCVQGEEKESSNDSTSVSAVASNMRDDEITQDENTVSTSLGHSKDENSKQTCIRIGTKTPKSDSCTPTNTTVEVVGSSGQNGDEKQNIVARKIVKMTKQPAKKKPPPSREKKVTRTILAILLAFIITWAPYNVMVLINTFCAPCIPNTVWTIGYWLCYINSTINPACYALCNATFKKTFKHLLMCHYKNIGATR
The data set is described as follows: Displacement of [3H]-NMS from human recombinant M2 receptor expressed in CHO cells assessed as dissociation half life at 100 fold human M2 receptor binding Ki concentration after 24 hrs by dilution-offset filter binding assay. In kind it is cell-based. In general terms: Loss of bound radioactivity is the signal in a displacement assay; it reports binding, not function.

For data set [4], the target named is T2, Muscarinic acetylcholine receptor M4 (Homo sapiens, UniProt P08173).
T2 sequence (P08173 whole entry): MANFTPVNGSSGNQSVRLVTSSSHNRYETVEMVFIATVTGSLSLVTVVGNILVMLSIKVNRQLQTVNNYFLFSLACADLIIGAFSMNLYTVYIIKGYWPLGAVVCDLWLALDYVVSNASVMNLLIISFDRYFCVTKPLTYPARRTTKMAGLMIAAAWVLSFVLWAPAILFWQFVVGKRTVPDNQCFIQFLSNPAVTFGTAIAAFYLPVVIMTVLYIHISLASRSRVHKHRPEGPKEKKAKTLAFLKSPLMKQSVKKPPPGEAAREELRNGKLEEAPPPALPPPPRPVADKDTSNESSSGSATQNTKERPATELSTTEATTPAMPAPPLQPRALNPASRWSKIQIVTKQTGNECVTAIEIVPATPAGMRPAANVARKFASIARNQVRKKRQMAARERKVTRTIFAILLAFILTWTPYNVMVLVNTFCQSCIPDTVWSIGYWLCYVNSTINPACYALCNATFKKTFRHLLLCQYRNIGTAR
The data set is described as follows: Displacement of [3H]-NMS from human recombinant M4 receptor expressed in CHO cells after 24 hrs by filter binding assay. It counts as cell-based.

Data set [5] addresses T3, Muscarinic acetylcholine receptor M4 (Homo sapiens) (UniProt P08173).
T3 sequence (whole entry): T2 sequence (P08173 whole entry)
Kind of data set: Displacement of [3H]-NMS from human recombinant M4 receptor expressed in CHO cells assessed as dissociation half life at 100 fold human M4 receptor binding Ki concentration after 24 hrs by dilution-offset filter binding assay. In kind it is cell-based.

Data set [6] deals with T4, Muscarinic acetylcholine receptor M5 (Homo sapiens, UniProt P08912).
T4 sequence (P08912 whole entry): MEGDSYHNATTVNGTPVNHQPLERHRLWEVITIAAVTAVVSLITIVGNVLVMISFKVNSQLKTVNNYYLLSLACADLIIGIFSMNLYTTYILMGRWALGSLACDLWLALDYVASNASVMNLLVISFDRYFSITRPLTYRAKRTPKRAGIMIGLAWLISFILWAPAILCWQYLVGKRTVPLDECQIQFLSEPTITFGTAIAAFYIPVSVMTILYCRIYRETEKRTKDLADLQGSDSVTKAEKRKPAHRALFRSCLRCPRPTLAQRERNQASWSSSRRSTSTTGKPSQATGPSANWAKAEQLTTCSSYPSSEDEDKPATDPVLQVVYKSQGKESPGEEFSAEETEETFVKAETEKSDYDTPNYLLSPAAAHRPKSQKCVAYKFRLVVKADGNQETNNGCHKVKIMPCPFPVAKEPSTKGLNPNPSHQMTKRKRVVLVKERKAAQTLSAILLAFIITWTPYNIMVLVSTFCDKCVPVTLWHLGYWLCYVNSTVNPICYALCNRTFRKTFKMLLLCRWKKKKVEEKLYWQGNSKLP
Kind of data set: Displacement of [3H]-NMS from human recombinant M5 receptor expressed in CHO cells after 24 hrs by filter binding assay. It counts as cell-based.

Data set [7] has as its system Canis familiaris. Kind of data set: Bronchodilator activity in methacholine challenged Beagle dog assessed as intrinsic duration of action at 3 ug intratracheally administered as single dose in micelle solution. In kind it is functional, Canis lupus familiaris.
Data set [8] relates to Canis familiaris. The data set is described as follows: Bronchodilator activity in methacholine challenged Beagle dog assessed as intrinsic duration of action at 10 ug intratracheally administered as single dose in micelle solution. In kind it is functional, Canis lupus familiaris.
Another data set has as its system MDR1. The data set is described as follows: Apparent permeability across basal to apical side in dog MDCK expressing MDR1. It counts as ADME, cell-based, Canis lupus familiaris.
The nature of data set [9]: Volume of distribution at steady state in iv dosed rat. It counts as ADME, organism-based. Conditions: in vivo, read-out: Vdss.
A short description of data set [10]: Total clearance in iv dosed rat. In kind it is ADME, organism-based. Conditions: in vivo.
In data set [11] the target is T5, Muscarinic acetylcholine receptor M3 (Homo sapiens, UniProt P20309). Conditions: CHO.
T5 sequence (P20309 whole entry, looked up): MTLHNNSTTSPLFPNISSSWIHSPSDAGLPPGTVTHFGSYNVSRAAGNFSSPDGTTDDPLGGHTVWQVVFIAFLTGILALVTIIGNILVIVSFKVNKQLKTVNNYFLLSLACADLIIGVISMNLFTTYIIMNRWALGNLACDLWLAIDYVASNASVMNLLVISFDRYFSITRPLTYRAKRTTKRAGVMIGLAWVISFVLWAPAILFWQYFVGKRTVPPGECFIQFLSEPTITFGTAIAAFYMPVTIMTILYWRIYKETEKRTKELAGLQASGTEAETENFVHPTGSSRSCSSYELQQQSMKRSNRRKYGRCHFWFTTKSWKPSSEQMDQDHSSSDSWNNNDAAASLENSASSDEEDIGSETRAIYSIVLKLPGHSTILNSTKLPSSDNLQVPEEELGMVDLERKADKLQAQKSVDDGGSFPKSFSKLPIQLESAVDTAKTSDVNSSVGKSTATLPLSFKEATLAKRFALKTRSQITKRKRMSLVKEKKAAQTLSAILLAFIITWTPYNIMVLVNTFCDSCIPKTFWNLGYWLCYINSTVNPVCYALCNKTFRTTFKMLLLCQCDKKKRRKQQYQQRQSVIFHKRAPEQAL
In data set [12] the target is T5, Muscarinic acetylcholine receptor M3.

Chain of Muscarinic acetylcholine receptor M3 (Cavia porcellus, UniProt Q8VH26) (Q8VH26 whole entry): as the sequence (Q8VH26 1-587) above

For `CC(C)(CCC(C(N)=O)(c1ccccc1)c1ccccc1)N1CC(Oc2cccc(O)c2)C1` [PF-03635659], the 50% inhibitory concentration (IC50) in data set [1] came out at 1530 pM. Further, the TIME in data set [2] was more than 16 h. Besides, the ED50 with Cavia porcellus turned out to be 3 µg. Moreover, the T1/2 in data set [3] is 4.38 h; in data set [5], 9.78 h; in data set [11], more than 24 h. In addition, the Ki amounted to 115 pM in data set [4] and 169 pM in data set [6]. In addition, the results for the Time in the data set with Canis familiaris [7] and in the data set on Canis familiaris [8] were more than 24 h and 32 h, respectively. The apparent permeability from basolateral to apical (Papp B→A) with MDR1 came to 64 ×10⁻⁶ cm/s. Moreover, the Vd in [9] is 8.4 L/kg. The same compound registered a clearance in data set [10] of 134 mL/min/kg. In addition, the pKb in data set [12] was found to be 9.6.
